Assay results published in ChEMBL document CHEMBL1629585, “Nationwide survey of CTX-M-type extended-spectrum beta-lactamases among Klebsiella pneumoniae isolates in Slovenian hospitals” (2009).
Converted amounts (≈) assume the structure as drawn.

Columns and labels:
Klebsiella pneumoniae [1] = experiment: Antibacterial activity against Klebsiella pneumoniae expressing CTX-M group 1 beta-lactamase by Etest method; assay type: functional
Escherichia coli [2] = experiment: Antibacterial activity against Escherichia coli TrC B expressing Klebsiella pneumoniae B blaCTX-M beta-lactamase by Etest method; assay type: functional
Escherichia coli [3] = experiment: Antibacterial activity against Escherichia coli TrC C expressing Klebsiella pneumoniae C blaCTX-M beta-lactamase by Etest method; assay type: functional
Escherichia coli [4] = experiment: Antibacterial activity against rifampicin resistant Escherichia coli J53-2 by Etest method
Klebsiella pneumoniae [5] = experiment: Antibacterial activity against Klebsiella pneumoniae A expressing CTX-M group 1 beta-lactamase by Etest method; assay type: functional
Klebsiella pneumoniae [6] = experiment: Antibacterial activity against Klebsiella pneumoniae D expressing CTX-M group 1 beta-lactamase by Etest method; assay type: functional
Escherichia coli [7] = experiment: Antibacterial activity against Escherichia coli TrC A expressing Klebsiella pneumoniae A blaCTX-M beta-lactamase by Etest method; assay type: functional
Klebsiella pneumoniae [8] = experiment: Antibacterial activity against Klebsiella pneumoniae C expressing CTX-M group 1 beta-lactamase by Etest method; assay type: functional
Klebsiella pneumoniae [9] = experiment: Antibacterial activity against Klebsiella pneumoniae B expressing CTX-M group 1 beta-lactamase by Etest method; assay type: functional
Klebsiella pneumoniae [10] = experiment: Antibacterial activity against Klebsiella pneumoniae C expressing CTX-M group 1 beta-lactamase by Etest method in presence of Tazobactam; assay type: functional
Klebsiella pneumoniae [11] = experiment: Antibacterial activity against Klebsiella pneumoniae D expressing CTX-M group 1 beta-lactamase by Etest method in presence of Tazobactam; assay type: functional
Klebsiella pneumoniae [12] = experiment: Antibacterial activity against Klebsiella pneumoniae expressing CTX-M group 1 beta-lactamase by Etest method in presence of Tazobactam; assay type: functional
Klebsiella pneumoniae [13] = experiment: Antibacterial activity against Klebsiella pneumoniae A expressing CTX-M group 1 beta-lactamase by Etest method in presence of Tazobactam; assay type: functional
Klebsiella pneumoniae [14] = experiment: Antibacterial activity against Klebsiella pneumoniae B expressing CTX-M group 1 beta-lactamase by Etest method in presence of Tazobactam; assay type: functional
Escherichia coli [15] = experiment: Antibacterial activity against Escherichia coli TrC C expressing Klebsiella pneumoniae C blaCTX-M beta-lactamase by Etest method in presence of Tazobactam; assay type: functional
Escherichia coli [16] = experiment: Antibacterial activity against rifampicin resistant Escherichia coli J53-2 by Etest method in presence of Tazobactam; assay type: functional
Escherichia coli [17] = experiment: Antibacterial activity against Escherichia coli TrC A expressing Klebsiella pneumoniae A blaCTX-M beta-lactamase by Etest method in presence of Tazobactam; assay type: functional
Escherichia coli [18] = experiment: Antibacterial activity against Escherichia coli TrC B expressing Klebsiella pneumoniae B blaCTX-M beta-lactamase by Etest method in presence of Tazobactam; assay type: functional

With `O=C(O)c1cn(C2CC2)c2cc(N3CCNCC3)c(F)cc2c1=O` [CIPROFLOXACIN] the MIC (Klebsiella pneumoniae [1]) was 0.032 µg/mL (≈ 0.0966 µM), the MIC50 (Klebsiella pneumoniae [1]) was 16 µg/mL (≈ 48.3 µM) and the MIC90 (Klebsiella pneumoniae [1]) was greater than 32 µg/mL. It also gave an MIC (Escherichia coli [2]) of no more than 0.125 µg/mL, an MIC (Escherichia coli [3]) of no more than 0.125 µg/mL and an MIC (Escherichia coli [4]) of no more than 0.125 µg/mL. The MIC (Klebsiella pneumoniae [5]) was 0.38 µg/mL (≈ 1.15 µM), the MIC50 (Klebsiella pneumoniae [5]) was 1 µg/mL (≈ 3.02 µM) and the MIC90 (Klebsiella pneumoniae [5]) was 6 µg/mL (≈ 18.1 µM). For the same compound, the MIC50 (Klebsiella pneumoniae [6]) was greater than 32 µg/mL, the MIC90 (Klebsiella pneumoniae [6]) was greater than 32 µg/mL and the MIC (Escherichia coli [7]) was no more than 0.125 µg/mL. The MIC50 (Klebsiella pneumoniae [8]) was greater than 32 µg/mL, the MIC90 (Klebsiella pneumoniae [8]) was greater than 32 µg/mL and the MIC50 (Klebsiella pneumoniae [9]) was greater than 32 µg/mL. It also gave an MIC90 (Klebsiella pneumoniae [9]) greater than 32 µg/mL.

With `C[C@@H](O)[C@H]1C(=O)N2C(C(=O)O)=C(SCCNC=N)C[C@H]12` [IMIPENEM ANHYDROUS] the MIC (Klebsiella pneumoniae [1]) was 0.19 µg/mL (≈ 0.635 µM), the MIC50 (Klebsiella pneumoniae [1]) was 0.25 µg/mL (≈ 0.835 µM) and the MIC90 (Klebsiella pneumoniae [1]) was 0.5 µg/mL (≈ 1.67 µM). For the same compound, the MIC (Klebsiella pneumoniae [5]) was 0.19 µg/mL (≈ 0.635 µM), the MIC50 (Klebsiella pneumoniae [5]) was 0.25 µg/mL (≈ 0.835 µM) and the MIC90 (Klebsiella pneumoniae [5]) was 0.38 µg/mL (≈ 1.27 µM). For the same compound, the MIC (Klebsiella pneumoniae [6]) was 0.19 µg/mL (≈ 0.635 µM), the MIC50 (Klebsiella pneumoniae [6]) was 0.25 µg/mL (≈ 0.835 µM) and the MIC90 (Klebsiella pneumoniae [6]) was 0.25 µg/mL (≈ 0.835 µM). The MIC (Klebsiella pneumoniae [8]) was 0.19 µg/mL (≈ 0.635 µM), the MIC50 (Klebsiella pneumoniae [8]) was 0.19 µg/mL (≈ 0.635 µM) and the MIC90 (Klebsiella pneumoniae [8]) was 0.38 µg/mL (≈ 1.27 µM). The MIC (Klebsiella pneumoniae [9]) was 0.125 µg/mL (≈ 0.418 µM), the MIC50 (Klebsiella pneumoniae [9]) was 0.19 µg/mL (≈ 0.635 µM) and the MIC90 (Klebsiella pneumoniae [9]) was 0.19 µg/mL (≈ 0.635 µM).

For `CCN1CCN(C(=O)N[C@@H](C(=O)N[C@@H]2C(=O)N3[C@@H]2SC(C)(C)[C@@H]3C(=O)O)c2ccccc2)C(=O)C1=O` [PIPERACILLIN], the MIC (Klebsiella pneumoniae [10]) was 3 µg/mL, the MIC50 (Klebsiella pneumoniae [10]) was greater than 256 µg/mL and the MIC90 (Klebsiella pneumoniae [10]) was greater than 256 µg/mL. It also gave an MIC (Escherichia coli [2]) greater than 64 µg/mL, an MIC (Escherichia coli [3]) greater than 64 µg/mL and an MIC (Escherichia coli [4]) of 4 µg/mL (≈ 7.73 µM). The MIC (Klebsiella pneumoniae [11]) was 4 µg/mL, the MIC50 (Klebsiella pneumoniae [11]) was 12 µg/mL and the MIC90 (Klebsiella pneumoniae [11]) was 24 µg/mL. For the same compound, the MIC (Klebsiella pneumoniae [12]) was 3 µg/mL, the MIC50 (Klebsiella pneumoniae [12]) was 12 µg/mL and the MIC90 (Klebsiella pneumoniae [12]) was greater than 256 µg/mL. The MIC (Escherichia coli [7]) was greater than 64 µg/mL, the MIC (Klebsiella pneumoniae [13]) was 2 µg/mL and the MIC50 (Klebsiella pneumoniae [13]) was 3 µg/mL. For the same compound, the MIC90 (Klebsiella pneumoniae [13]) was 12 µg/mL, the MIC (Klebsiella pneumoniae [14]) was 32 µg/mL and the MIC50 (Klebsiella pneumoniae [14]) was 64 µg/mL. It also gave an MIC90 (Klebsiella pneumoniae [14]) greater than 256 µg/mL.

`C[C@]1(Cn2ccnn2)[C@H](C(=O)O)N2C(=O)C[C@H]2S1(=O)=O` [TAZOBACTAM] showed an MIC (Escherichia coli [15]) of 16 µg/mL, an MIC (Klebsiella pneumoniae [10]) greater than 64 µg/mL and an MIC (Escherichia coli [16]) of 4 µg/mL. For the same compound, the MIC (Escherichia coli [17]) was 4 µg/mL, the MIC (Escherichia coli [18]) was 16 µg/mL and the MIC (Klebsiella pneumoniae [13]) was 4 µg/mL. The MIC (Klebsiella pneumoniae [14]) was greater than 64 µg/mL.

`NC[C@H]1O[C@H](O[C@H]2[C@H](O)[C@@H](O[C@H]3O[C@H](CO)[C@@H](O)[C@H](N)[C@H]3O)[C@H](N)C[C@@H]2N)[C@H](N)C[C@@H]1O` [TOBRAMYCIN] gave an MIC (Escherichia coli [2]) of 32 µg/mL (≈ 68.4 µM), an MIC (Escherichia coli [3]) of 16 µg/mL (≈ 34.2 µM) and an MIC (Escherichia coli [4]) of 1 µg/mL (≈ 2.14 µM). For the same compound, the MIC (Klebsiella pneumoniae [5]) was 32 µg/mL (≈ 68.4 µM), the MIC (Escherichia coli [7]) was 32 µg/mL (≈ 68.4 µM) and the MIC (Klebsiella pneumoniae [8]) was 32 µg/mL (≈ 68.4 µM). The MIC (Klebsiella pneumoniae [9]) was 32 µg/mL (≈ 68.4 µM).

GENTAMICIN was tested, and the MIC50 (Klebsiella pneumoniae [1]) was 64 µg/mL, the MIC90 (Klebsiella pneumoniae [1]) was greater than 256 µg/mL and the MIC (Escherichia coli [2]) was 32 µg/mL. It also gave an MIC (Escherichia coli [3]) of 16 µg/mL, an MIC (Escherichia coli [7]) of 4 µg/mL and an MIC50 (Klebsiella pneumoniae [8]) of 128 µg/mL. The MIC90 (Klebsiella pneumoniae [8]) was greater than 256 µg/mL.
